In patent publication US9376442B2, “Methylpyrrolopyrimidinecarboxamides” (Takeda GmbH, priority 2009, dated 2016):

molecular target: T1, PDE5A1 (Homo sapiens, UniProt O76074); test: Inhibition of type 5 phosphodiesterase (PDE5) activity, modified SPA test with human platelet lysate; format: biochemical; conditions: 0.5 μM cGMP, read-out: PDE5A1 inhibitory values [measured as −log IC50 (mol/l)] (converted)
T1 construct: from tissue; host or cells: human platelets from fresh donor blood (10,000 x g supernatant of sonicated lysate)
In short: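 Scintillation proximity assay with [3H]cGMP tracer at 0.5 μM total cGMP, stopped after 15 min with beads containing IBMX. PDE3 and PDE2 activities suppressed with motapizone (1 μM) and a PDE2 inhibitor (10 nM). Human platelet supernatant served as the enzyme, with compound preincubated 5 min at 37° C; IC50 values from concentration-effect curves.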

Question: With `Cc1cc(-c2ncnc3c(C(=O)N[C@@H]4CCN(C(=O)CO)C[C@H]4O)c(C)[nH]c23)c(OCC2CC2)cc1F` (relative stereo) [Example F81, 4-[2-(Cyclopropylmethoxy)-4-fluoro-5-methylphenyl]-N-[(3R*,4R*)-3-hydroxy-1-(hydroxyacetyl)piperidin-4-yl]-6-methyl-5H-pyrrolo[3,2-d]pyrimidine-7-carboxamide] as the compound, how does the IC50 read?
Answer: < 1 nM

Question: Which IC50 does the source give for `Cc1cc(-c2ncnc3c(C(=O)NC4CCN(C(=O)[C@H](C)O)CC4)c(C)[nH]c23)c(OCC2CC2)cc1F` [Example F76, 4-[2-(Cyclopropylmethoxy)-4-fluoro-5-methylphenyl]-N-{1-[(2S)-2-hydroxypropanoyl]piperidin-4-yl}-6-methyl-5H-pyrrolo[3,2-d]pyrimidine-7-carboxamide] here?
Answer: < 1 nM

Question: How did the IC50 turn out when `CCC(=O)N1CC[C@@H](NC(=O)c2c(C)[nH]c3c(-c4cc(OC)ccc4OCC4CC4)ncnc23)[C@H](O)C1` (relative stereo) [Example E79, 4-[2-(Cyclopropylmethoxy)-5-methoxyphenyl]-N-[(3R*,4R*)-3-hydroxy-1-propanoylpiperidin-4-yl]-6-methyl-5H-pyrrolo[3,2-d]pyrimidine-7-carboxamide] was run?
Answer: < 1 nM

Question: `COc1cc(-c2ncnc3c(C(=O)N[C@@H]4CN(C(=O)CO)C[C@H]4O)c(C)[nH]c23)c(OCC2CC2)cc1F` (relative stereo) [Example F113, 4-[2-(Cyclopropylmethoxy)-4-fluoro-5-methoxyphenyl]-N-[(3R*,4R*)-1-glycoloyl-4-hydroxypyrrolidin-3-yl]-6-methyl-5H-pyrrolo[3,2-d]pyrimidine-7-carboxamide] was tested. Which IC50 did it give?
Answer: < 1 nM

Question: `COc1ccc(-c2ncnc3c(C(=O)NC4CN(C(=O)C(C)O)CC4O)c(C)[nH]c23)c(OCC2CC2)c1` (mixture of isomers) [Example F40, Diastereomeric mixture of 4-[2-(cyclopropylmethoxy)-4-methoxyphenyl]-N{(3R,4R)-4-hydroxy-1-[(2S)-2-hydroxypropanoyl]pyrrolidin-3-yl}-6-methyl-5H-pyrrolo[3,2-d]pyrimidine-7-carboxamide and 4-[2-(cyclopropylmethoxy)-4-methoxyphenyl]-N-{(3S,4S)-4-hydroxy-1-[(2S)-2-hydroxypropanoyl]pyrrolidin-3-yl}-6-methyl-5H-pyrrolo[3,2-d]pyrimidine-7-carboxamide] was tested. Which IC50 did it give?
Answer: < 1 nM

Question: For `COCC(=O)N1CCC(NC(=O)c2c(C)[nH]c3c(-c4ccc(OC)cc4OCC4CC4)ncnc23)CC1` [Example E57, 4-[2-(Cyclopropylmethoxy)-4-methoxyphenyl]-N-[1-(methoxyacetyl)piperidin-4-yl]-6-methyl-5H-pyrrolo[3,2-d]pyrimidine-7-carboxamide], which IC50 is on record?
Answer: < 1 nM

Question: Which IC50 does the source give for `CC(=O)N1CC[C@@H](NC(=O)c2c(C)[nH]c3c(-c4cc(F)ccc4OCC4CC4)ncnc23)C1` [Example E46, N-[(3R)-1-acetylpyrrolidin-3-yl]-4-[2-(cyclopropylmethoxy)-5-fluorophenyl]-6-methyl-5H-pyrrolo[3,2-d]pyrimidine-7-carboxamide] here?
Answer: 1 to 10 nM

Question: For `CCC(=O)N[C@H]1CC[C@@H](NC(=O)c2c(C)[nH]c3c(-c4cc(F)c(OC)cc4OCC4CC4)ncnc23)CC1` [Example E139, 4-[2-(Cyclopropylmethoxy)-5-fluoro-4-methoxyphenyl]-6-methyl-N-[cis-4-(propionylamino)cyclohexyl]-5H-pyrrolo[3,2-d]pyrimidine-7-carboxamide], which IC50 is on record?
Answer: < 1 nM

Question: `CCC(=O)N1CC[C@@H](NC(=O)c2c(C)[nH]c3c(-c4c(OCC5CC5)ccc5c4OCO5)ncnc23)C1` [Example E14, 4-[5-(Cyclopropylmethoxy)-1,3-benzodioxol-4-yl]-6-methyl-N-[(3R)-1-propionylpyrrolidin-3-yl]-5H-pyrrolo[3,2-d]pyrimidine-7-carboxamide] was tested. Which IC50 did it give?
Answer: < 1 nM

Question: For `COc1ccc(-c2ncnc3c(C(=O)N[C@@H]4CN(C(C)=O)C[C@H]4O)c(C)[nH]c23)c(OCC2CC2)c1` (relative stereo) [Example E63, N-[(3R*,4R*)-1-acetyl-4-hydroxypyrrolidin-3-yl]-4-[2-(cyclopropylmethoxy)-4-methoxyphenyl]-6-methyl-5H-pyrrolo[3,2-d]pyrimidine-7-carboxamide], which IC50 is on record?
Answer: < 1 nM

Question: Which IC50 does the source give for `COc1ccc(-c2ncnc3c(C(=O)N[C@@H]4CN(C(=O)CO)C[C@H]4O)c(C)[nH]c23)c(OCC2CC2)c1` (relative stereo) [Example F39, 4-[2-(Cyclopropylmethoxy)-4-methoxyphenyl]-N-[(3R*,4R*)-1-glycoloyl-4-hydroxypyrrolidin-3-yl]-6-methyl-5H-pyrrolo[3,2-d]pyrimidine-7-carboxamide] here?
Answer: < 1 nM

Question: With `CCC(=O)N1CCC(NC(=O)c2c(C)[nH]c3c(-c4cc(OC)c(F)cc4OCC4CC4)ncnc23)CC1` [Example E103, 4-[2-(cyclopropylmethoxy)-4-fluoro-5-methoxyphenyl]-6-methyl-N-(1-propionylpiperidin-4-yl)-5H-pyrrolo[3,2-d]pyrimidine-7-carboxamide] as the compound, how does the IC50 read?
Answer: < 1 nM

Question: For `CC(=O)N[C@H]1CC[C@H](NC(=O)c2c(C)[nH]c3c(-c4cc(C(C)=O)ccc4OCC4CC4)ncnc23)CC1` [Example E166, N-[trans-4-(Acetylamino)cyclohexyl]-4-[5-acetyl-2-(cyclopropylmethoxy)phenyl]-6-methyl-5H-pyrrolo[3,2-d]pyrimidine-7-carboxamide], which IC50 is on record?
Answer: < 1 nM

Question: How did the IC50 turn out when `CCC(=O)N1CC[C@@H](NC(=O)c2c(C)[nH]c3c(-c4cc(C)c(F)cc4OCC4CC4)ncnc23)[C@H](O)C1` (relative stereo) [Example E129, 4-[2-(cyclopropylmethoxy)-4-fluoro-5-methylphenyl]-N-[(3R*,4R*)-3-hydroxy-1-propanoylpiperidin-4-yl]-6-methyl-5H-pyrrolo[3,2-d]pyrimidine-7-carboxamide] was run?
Answer: < 1 nM

Question: `CC(=O)N[C@H]1CC[C@@H](NC(=O)c2c(C)[nH]c3c(-c4cc(C(C)C)ccc4OCC4CC4)ncnc23)CC1` [Example E161, N-[cis-4-(Acetylamino)cyclohexyl]-4-[2-(cyclopropylmethoxy)-5-(propan-2-yl)phenyl]-6-methyl-5H-pyrrolo[3,2-d]pyrimidine-7-carboxamide] was tested. Which IC50 did it give?
Answer: < 1 nM

Question: For `CC(=O)N1CCC(NC(=O)c2c(C)[nH]c3c(-c4ccc(F)cc4OCC4CC4)ncnc23)CC1` [Example E19, N-(1-acetylpiperidin-4-yl)-4-[2-(cyclopropylmethoxy)-4-fluorophenyl]-6-methyl-5H-pyrrolo[3,2-d]pyrimidine-7-carboxamide], which IC50 is on record?
Answer: < 1 nM

Question: Which IC50 does the source give for `COc1ccc(-c2ncnc3c(C(=O)NC4CCN(C(C)=O)CC4)c(C)[nH]c23)c(OCC2CC2)c1` [Example E55, N-(1-acetylpiperidin-4-yl)-4-[2-(cyclopropylmethoxy)-4-methoxyphenyl]-6-methyl-5H-pyrrolo[3,2-d]pyrimidine-7-carboxamide] here?
Answer: < 1 nM

Question: How did the IC50 turn out when `COc1cc(-c2ncnc3c(C(=O)N[C@H]4CN(C(=O)CO)CC[C@@H]4O)c(C)[nH]c23)c(OCC2CC2)cc1F` (relative stereo) [Example F73, 4-[2-(Cyclopropylmethoxy)-4-fluoro-5-methoxyphenyl]-N-[(3S*,4S*)-1-glycoloyl-4-hydroxypiperidin-3-yl]-6-methyl-5H-pyrrolo[3,2-d]pyrimidine-7-carboxamide] was run?
Answer: < 1 nM

Question: How did the IC50 turn out when `CCC(=O)N[C@H]1CC[C@H](NC(=O)c2c(C)[nH]c3c(-c4c(OCC5CC5)ccc5c4OCO5)ncnc23)CC1` [Example E6, 4-[5-(Cyclopropylmethoxy)-1,3-benzodioxol-4-yl]-6-methyl-N-[trans-4-(propionylamino)cyclohexyl]-5H-pyrrolo[3,2-d]pyrimidine-7-carboxamide] was run?
Answer: < 1 nM

Question: With `COc1cc(OCC2CC2)c(-c2ncnc3c(C(=O)N[C@@H]4CN(C(=O)[C@H](C)O)C[C@H]4O)c(C)[nH]c23)cc1F` (relative stereo) [Example F118, 4-[2-(Cyclopropylmethoxy)-5-fluoro-4-methoxyphenyl]-N-{(3R*,4R*)-4-hydroxy-1-[(2S)-2-hydroxypropanoyl]pyrrolidin-3-yl}-6-methyl-5H-pyrrolo[3,2-d]pyrimidine-7-carboxamide] as the compound, how does the IC50 read?
Answer: < 1 nM

Question: With `CC(=O)N1CC[C@@H](NC(=O)c2c(C)[nH]c3c(-c4cc(F)ccc4OCC4CC4)ncnc23)[C@H](O)C1` (relative stereo) [Example E49, N-[(3R*,4R*)-1-acetyl-3-hydroxypiperidin-4-yl]-4-[2-(cyclopropylmethoxy)-5-fluorophenyl]-6-methyl-5H-pyrrolo[3,2-d]pyrimidine-7-carboxamide] as the compound, how does the IC50 read?
Answer: 1 to 10 nM

Question: With `COc1cc(-c2ncnc3c(C(=O)N[C@@H]4CCN(C(=O)CO)C[C@H]4O)c(C)[nH]c23)c(OCC2CC2)cc1F` (relative stereo) [Example F71, 4-[2-(Cyclopropylmethoxy)-4-fluoro-5-methoxyphenyl]-N-[(3R*,4R*)-1-glycoloyl-3-hydroxypiperidin-4-yl]-6-methyl-5H-pyrrolo[3,2-d]pyrimidine-7-carboxamide] as the compound, how does the IC50 read?
Answer: < 1 nM

Question: `COCC(=O)N1CCC(NC(=O)c2c(C)[nH]c3c(-c4cc(C)c(F)cc4OCC4CC4)ncnc23)CC1` [Example E121, 4-[2-(Cyclopropylmethoxy)-4-fluoro-5-methylphenyl]-N-[1-(methoxyacetyl)piperidin-4-yl]-6-methyl-5H-pyrrolo[3,2-d]pyrimidine-7-carboxamide] was tested. Which IC50 did it give?
Answer: < 1 nM

Question: Which IC50 does the source give for `CC(=O)N[C@H]1CC[C@@H](NC(=O)c2c(C)[nH]c3c(-c4c(OCC5CC5)ccc5c4OCO5)ncnc23)CC1` [Example E9, N-(cis-4-acetamidocyclohexyl)-4-[5-(cyclopropylmethoxy)-1,3-benzodioxol-4-yl]-6-methyl-5H-pyrrolo[3,2-d]pyrimidine-7-carboxamide] here?
Answer: < 1 nM

Question: For `Cc1cc(-c2ncnc3c(C(=O)N[C@H]4CC[C@H](NC(=O)[C@H](C)O)CC4)c(C)[nH]c23)c(OCC2CC2)cc1F` [Example F78, 4-[2-(Cyclopropylmethoxy)-4-fluoro-5-methylphenyl]-N-(trans-4-{[(2S)-2-hydroxypropanoyl]amino}cyclohexyl)-6-methyl-5H-pyrrolo[3,2-d]pyrimidine-7-carboxamide], which IC50 is on record?
Answer: < 1 nM
